Data on one compound can be found in US20090017047A1, “Preparation for the Prevention and Treatment of Stress Conditions as Well as Functional and Organic Disorders of the Nervous System and Metabolic Disorders” (priority 2004, published 2009).

Each structure is given as a SMILES string. Like-named read-outs stand apart in the source and are kept apart here.

The test system of series [1] is NMDA receptors (N-methyl-D-aspartate receptors). The following applies: opening of the ion channel induced by glutamate.
Series [2] is described as follows: Pharmacological effect and tolerability of glycine on administration. The following applies: in vivo.
For series [3] the following is noted: very low application dosage.

With `NCC(=O)O` [Glycine], the “effect on the excitatory NMDA receptors” value in series [1] is “shows an effect as a co-transmitter”. For the same compound, in series [2], the “negative effects with other applications of drugs” value is “No negative effects”, the “time until the preparation acts” value fell in the range of 5 to 10 min and the undesired side-effects result is reported as “have not been proven”. The undesired side-effects result in series [2] (listed as glycine) was “No undesired side-effects have been established”. Moreover, the “uptake into the central nervous system” value in series [3] (application via the mucous membranes, avoiding the first-pass effect) is listed as “very fast uptake”. Besides, the “uptake into the central nervous system” value in series [3] was “very quick uptake”.
